Test results as given in US11730731B2 (INVENTAGE LAB INC., priority 2021, dated 2023).

Tests used:
IL-6 = assay: Multiplex protein immunoassay of IL-6 in serum of CIA mice; assay type: in vivo, mouse; settings: Example 3, positive control groups (MTX, Xeljanz)
Procedure: For the measurement result, paw tissue weight of the mouse was corrected for the quantified amount of IL-6 protein. For each target joint, the hind paw was mainly used, and in order to overcome the limitation of the amount of protein extracted from the joint tissue, up to 4 inflammatory mediators were measured in one well. […]

[1] = tested on: inflammatory mediators in arthritis tissue (IL-1β, IL-6, IL-17, TNF-α, MCP-1, MIP-2, IL-2); assay: Multiplex protein immunoassay (Luminex multi-analyte-ELISA) of inflammatory mediators in arthritic tissue; assay type: in vivo, mouse; settings: for ELISA values in Arthritis Paw, IL-1β, Mean / ELISA values in Arthritis Paw, IL-6, Mean / ELISA values in Arthritis Paw, IL-17, Mean / ELISA values in Arthritis Paw, TNF-α, Mean: CIA mice, Example 3, positive control groups (MTX, Xeljanz); for MCP-1, ELISA values in Arthritis Paw (pg/mL) Mean / MIP-2, ELISA values in Arthritis Paw (pg/mL) Mean: MTX 1 mg/kg ip twice/week, MTX 1 mg/kg + Q-DDS 3 mg/mouse
Text: In order to evaluate the inflammatory activity and confirm the mode of action of the test substance through quantitative analysis of inflammatory substances in mouse arthritis tissue and blood, inflammatory mediators were investigated at the protein level. In order to overcome the limitation of the amount of sample that can be extracted for protein analysis, a multi-analyte-ELISA (multi-analyte-ELISA) method based on Luminex technology was used to analyze the largest amount of protein in a small sample.
(§1) The mouse joint tissue obtained after treatment with the test substance in the method of Example 3.1 was pulverized through ceramic beads, and all proteins were extracted using a lysis buffer (Cat. 1713040111, Bio-Rad). Using Pro-reagent kit V, the same amount of protein (2.7 mg/mL) for each administration group was diluted ¼ and reacted with the target-binding beads in a culture dish for 30 minutes. After washing with a wash buffer, it was reacted with the target-measurement antibody for 30 minutes, and after washing with a wash buffer again, it was reacted with streptavidin-PE for 10 minutes. Thereafter, the target protein is quantitatively measured for each administration group using the Bio-Plex® 200 system (Bio-Rad). The target-binding beads were composed of a set that can be combined as needed from Bio-Plex Mouse cytokine 4-plex (IL-1β, IL-6, IL-17A, TNF-α; Cat. 171G5002M), Bio-Plex Pro Mouse Cytokine 1-plex (MCP1; Cat. 171G5019M), Bio-Plex Pro Mouse Cytokine II 1-plex (MIP2; Cat 171G6006M), and Bio-Plex Pro Mouse Cytokine 1-plea (IL-6; Cat. 171 G5007M) (all products are from Bio Rad) and were used for measurement.
For the measurement result, paw tissue weight of the mouse was corrected for the quantified target protein. For each target joint, the hind paw was mainly used, and in order to overcome the limitation of the amount of protein extracted from the joint tissue, up to 4 inflammatory mediators were measured in one well.
On the other hand, as the target protein to be measured, a representative inflammation-promoting cytokine group A (IL-1β, IL-6, IL-17, and TNF-α) among inflammatory mediators, and a chemokine group B (MCP-1 and MIP-2) among inflammatory mediators was selected to carry out the experiment. The measurement results were summarized in FIGS. 12A and 12B, and Tables 19 and 20 below. […]
as §1, with “4.1. above” for “3.1”, “171 G5002M),” for “171G5002M),”, “Cat. 171 G6006M),” for “Cat 171G6006M),”, “1-plex” for “1-plea”, “171G5007M)” for “171 G5007M)”
On the other hand, as the target protein to be measured, a representative inflammation-promoting cytokine group A (IL-1β, IL-6, IL-17, and TNF-α) among inflammatory mediators, and IL-2 and a chemokine group B (IL-2, MCP-1 and MIP-2) among inflammatory mediators were selected to carry out the experiment. The measurement results were summarized in FIGS. 18A and 18B, and Tables 29 and 30 below.

p65 NF-κB [2] = assay: Western blotting of NF-κB activity in LPS-treated SW982 cells; assay type: cell-based, human
Procedure: (§2) 1× Cell lysis buffer (Cell signaling, CA, USA) was mixed with protease and a phosphatase inhibitor and added to SW982 cells. After extracting the protein from the cells, the concentration was measured, and the same amount of protein was developed on an SDS-polyacrylamide gel, and transferred to an ECL nitrocellulose membrane (Amersham Pharmacia Biotech, Inc., Piscataway, N.J., USA) and blocked with nonfat dried milk for 1 hour. Thereafter, the reaction was performed with the first antibody (p65 NF-κB, phospho p65 NF-κB or calnexin; Cell signaling, CA, USA), while shaking at 4° C. for 24 hours. Then, after shaking and washing 3 times for 10 minutes with PBST buffer, the secondary antibody was incubated with anti-mouse or anti-rabbit HRP-conjugated secondary antibody for 1 hour at room temperature, and reacted with the protein band on the membrane using Supersignal west pico ECL solution (Thermo Fisher Scientific Inc.). The results were visualized with the Bio-Rad Gel Documentation system (Bio-Rad Laboratories, Hercules, Calif., USA), and the results were shown in FIG. 26.
as §2, with “phospho p65 NF-κB, p-ERK, ERK, p-JNK, JNK, p-p38, p38 or calnexin;” for “phospho p65 NF-κB or calnexin;”, “Scientific Inc.). […]” for “Scientific Inc.). The results were visualized with the Bio-Rad Gel Documentation system (Bio-Rad Laboratories, Hercules, Calif., USA), and the results were shown in FIG. 26.”

p65 NF-κB [3] = assay: Western blotting of NF-κB activity in LPS-treated Raw 264.7 cells; assay type: cell-based, mouse
[4] = Example 3, CIA mouse joint tissue, Xeljanz 10 mg/kg oral once/day

Structure (SMILES)	ELISA values in Serum, IL-6, Mean (IL-6)	ELISA values in Arthritis Paw, IL-1β, Mean [1]	ELISA values in Arthritis Paw, IL-6, Mean [1]	ELISA values in Arthritis Paw, IL-17, Mean [1]	ELISA values in Arthritis Paw, TNF-α, Mean [1]	MCP-1, ELISA values in Arthritis Paw (pg/mL) Mean [1, 4]	MIP-2, ELISA values in Arthritis Paw (pg/mL) Mean [1, 4]	phosphorylation of p65 NF-κB increased by LPS (p65 NF-κB [2]; 200 ug/ml of naltrexone, Western blotting)	phosphorylation of p65 NF-κB increased by LPS (p65 NF-κB [2]; LPS 1 ug/ml, 0.5, 1, 10, 100 uM, 30 minutes, naltrexone effect at 1 uM)	p65 NF-κB phosphorylation increased by LPS (p65 NF-κB [3]; LPS 1 ug/ml, 0.5, 1, 10, 100 uM, 30 minutes)	phosphorylation of p65 NF-κB increased by LPS (p65 NF-κB [3]; from a concentration of 500 ug/ml of naltrexone (100, 200, 500, 1000 ug/ml tested), Western blotting)	IL-17 protein in arthritis tissue [1, 4]	TNF-α protein in arthritis tissue [1, 4]
CN(Cc1cnc2nc(N)nc(N)c2n1)c1ccc(C(=O)N[C@@H](CCC(=O)O)C(=O)O)cc1 [Methotrexate, methotrexate]	39.6 pg/mL	1.05 pg/mL	1.8 pg/mL	2.269 pg/mL	6.54 pg/mL	76.1 pg/mL	4.4 pg/mL	–	–	–	–	–	–
O=C1CC[C@@]2(O)[C@H]3Cc4ccc(O)c5c4[C@@]2(CCN3CC2CC2)[C@H]1O5 [Naltrexone, 17-(cyclopropylmethyl)-4,5α-epoxy-3,14-dihydroxymorphinan-6-one]	–	–	–	–	–	–	–	inhibited	inhibited	inhibited	inhibits the activity of NF-κB	–	–
C[C@@H]1CCN(C(=O)CC#N)C[C@@H]1N(C)c1ncnc2[nH]ccc12 [Xeljanz ®, Tofacitinib]	94.5 pg/mL	12.68 pg/mL	88.6 pg/mL	4.57 pg/mL	24.52 pg/mL	207.9 pg/mL	126.8 pg/mL	–	–	–	–	4.57 pg/mL	24.52 pg/mL
